From US10392398B2, “Inhibitors of Late SV40 Factor (LSF) as cancer chemotherapeutics” (TRUSTEES OF BOSTON UNIVERSITY, priority 2010, dated 2019)
Where “and” joins values, the source holds several entries; their conditions need not be identical. Identical values can stand only once. Like-named read-outs stand apart in the source and are kept apart here.

Assays:
[1] = tested on: primary mouse hepatocytes; experiment: Primary mouse hepatocytes, growth and toxicity; assay type: cell-based
Text: Averages with SEM of three experiments are shown. *P<0.05, by one-tailed t-test. […] The cells were imaged separately for TUNEL-positivity and DNA at the top. Below: Merged images; green for TUNEL (Terminal deoxynucleotidyl transferase dUTP nick end labeling) staining, blue for DAPI (4′,6-diamidino-2-phenylindole) staining. […] Binucleate cells are common for adult hepatocytes.

[2] = tested on: QGY-7703 HCC cells; experiment: HCC cell viability (MTT), QGY-7703; assay type: cell-based
Experimental: Cells were plated at 3×10^4 cells/mL, A549 and HeLa, and 1×10^4 cells/mL, NIH/3T3, in 96-well plates and incubated for 24 h to allow for cell adhesion. LSF-library compounds were dissolved in DMSO, serial diluted in appropriate medium and added to cells in triplicate (2 plates). DMSO was added to control wells at a final concentration of 1%. After 72 h incubation in the presence of compound, confluent cells were assayed for growth proliferation with CellTiter 96® AQueous One Solution Cell Proliferation Assay (MTS) (Promega) according to the manufacturer's protocol. Plates were read at 490 nm on a microplate reader, and IC50 values were determined as the percentage of compound-treated cell growth to control cell growth. HCC cells—one hour after plating HCC cells onto 96-well plates, compound or vehicle (DMSO) was added to the desired concentrations, keeping DMSO at 0.5%. At indicated time points, cell viability was assayed using the CellTiter 96® Non-Radioactive Cell Proliferation Assay (MTT) (Promega).

[3] = tested on: cancer cell lines; experiment: Inhibition of growth of cancer cell lines in vitro (FIGS. 9 and 10); assay type: cell-based; conditions: 0.2-33 μM
Experimental: FIG. 9A-9K show the results of inhibition of growth of cancer cell lines in vitro by FQI1 (Formula (IV)). The effect of inhibition of cell growth (represented as a fraction of 1) of increasing concentrations of FQI1 between 0.2-33 μM is shown.
The effect of inhibition of cell growth (represented as a fraction of 1) of increasing concentrations of FQI2 between 0.2-33 μM is shown.

[4] = Pharmacokinetic analysis in rat plasma; assay type: in vivo; conditions: for Vd: read-out: VDss; for bioavailability: read-out: % Bioavailability F
Experimental: The purpose of the study was to measure the concentration of FQI-34 in rat plasma samples. The study was performed under non-GLP conditions. All work was performed with appropriate local health regulation and ethical approval. Plasma samples were taken at 0.08, 0.25, 0.5, 1, 2, 4, 8, and 24 hours. Plasma samples were crashed with three volumes of methanol containing an analytical internal standard (propranolol/bucetin/diclofenac). Samples were then centrifuged to remove precipitated protein, and the supernatant was analyzed by LC-MS/MS using a Waters Xevo TQ mass spectrometer coupled with an Acuity HPLC and a CTC PAL chilled autosampler, all controlled by MassLynx software (Waters). The analyte signal was optimized prior to analysis. After separation on a C18 reverse phase HPLC column (Waters Acquity HSS T3 2.1×50 mm 1.8 μM) using an acetonitrile-water gradient system, peaks were analyzed by mass spectrometry (MS) using ESI ionization in MRM mode. All plasma samples were compared to a calibration curve prepared in rat blank plasma.
Male Sprague-Dawley rats were obtained from a commercial source and housed in an AAALAC-approved facility until dosing. For IV dosing, FQI-34 was dissolved in 10% ethanol/16% PEG-400/74% saline at 0.4 mg/mL and in a 1% methylcellulose/0.5% Tween-80 suspension at 10 mg/mL for PO dosing. Three rats per group were dosed by a single IV bolus (10 mL/kg) or PO (10 mL/kg).
Plasma PK-parameters were independently verified and interpreted using PK-solver: An Excel add-In (Zhang, Y. et al. PKSolver: An add-in program for pharmacokinetic and pharmacodynamic data analysis in Microsoft Excel. Comput. Methods Programs Biomed. (2010) 99, 306-314), via a non-compartmental analysis using the linear-trapezoidal method (Fan, J. Pharmacokinetics. Biochemical Pharmacology (2014) 87, 93-120).

[5] = tested on: QGY-7703 cells; experiment: Cell viability GI50 (MTS), QGY-7703; assay type: cell-based; conditions: Homo sapiens
Experimental: QGY-7703 and A549 cells were cultured at 37° C. in 5% CO2 in DMEM (Dulbecco's modification of Eagle's Medium; Corning) supplemented with 10% Fetal Bovine Serum (FBS; Invitrogen). NIH-3T3 cells were cultured at 37° C. in 5% CO2 in DMEM supplemented with 10% Fetal Calf Serum (FCS; Atlanta Biologicals). For cell viability assays, 1,500 cells were seeded in 96-well plates and treated with FQI-34 or vehicle (DMSO) at appropriate concentrations (DMSO at 1%) after 20 hours. After 72-hour incubation with compound or vehicle, cell growth was assessed via the Promega CellTiter 96® AQueous One Solution Cell Proliferation Assay, a colorimetric method to determine the number of viable cells. 20 μL of the CellTiter 96® AQueous One Solution Reagent was added directly into cultured wells and incubated for one hour, after which the absorbance at 490 nm was read with a 96-well plate reader (Opys MR Microplate Reader). The CellTiter 96® AQueous One Solution contains an MTS tetrazolium compound which is bioreduced by cells into a colored formazan product that is soluble in tissue culture medium. The quantity of formazan product as measured by absorbance is directly proportional to the number of living cells in culture. GI50 values were determined from plots of the percentage of compound-treated cell growth to vehicle cell growth vs. compound concentration (GraphPad Prism; non-linear regression 4-parameter curve fit with variable slope).

[6] = male, Sprague-Dawley, rat, plasma, iv, 4 mg/kg, rat plasma, IV 4 mg/kg, AVERAGE
[7] = male, Sprague-Dawley, rat, plasma, iv, 4 mg/kg, rat plasma, IV 4 mg/kg, individual rats A, B, C
[8] = rat plasma, IV 4 mg/kg, individual rats A, B, C, 4 mg/kg
[9] = rat plasma, PO 100 mg/kg, individual rats A, B, C, 100 mg/kg
[10] = rat, IV 4 mg/kg, individual rats A, B, C, 4 mg/kg

SMILES: CCOc1ccccc1C1CC(=O)Nc2cc3c(cc21)OCO3 (racemic) [FQI1, 8-(2-ethoxyphenyl)-7,8-dihydro-[1,3]dioxolo[4,5-g]quinolin-6(5H)-one]
- growth consequences or toxicity in primary non-dividing mouse hepatocytes [1]: No growth consequences or toxicity
- effect of exogenous thymidine on treated cell viability profiles ([2]; QGY-7703, 20 μM thymidine): not affected
- concentration at which decrease in HCC cell viability was observable ([2]; QGY-7703, between 24 and 48 hours): 2 µM
- cellular proliferation of QGY-7703 cells (MTT) ([2]; in words): decreased overall cellular proliferation
- growth of a variety of cancers, in vitro cell assay [3]: inhibit the growth of a variety of cancers

SMILES: CCOc1cc(N(C)C)ccc1C1CC(=O)Nc2cc3c(cc21)OCO3 (centres unmarked) [FQI-34, 8-(4-(dimethylamino)-2-ethoxyphenyl)-7,8-dihydro-[1,3]dioxolo[4,5-g]quinolin-6(5H)-one]
- clearance ([4]; male, Sprague-Dawley, rat, plasma, iv, 4 mg/kg, IV 4 mg/kg, AVERAGE): 73 mL/min/kg
- clearance ([4]; male, Sprague-Dawley, rat, plasma, iv, 4 mg/kg, IV 4 mg/kg, individual rats A, B, C): 65 mL/min/kg
- AUC(0-inf) [4, 6]: 935 ng·h/mL
- half-life [4, 6]: 48.6 min
- C0 ([4]; male, Sprague-Dawley, rat, plasma, iv, 4 mg/kg, rat plasma, IV 4 mg/kg, AVERAGE, read-out: C0): 423 ng/mL
- Cmax ([4]; male, Sprague-Dawley, rat, plasma, iv, 4 mg/kg, rat plasma, IV 4 mg/kg, AVERAGE, read-out: Cmax): 552 ng/mL
- Tmax ([4]; male, Sprague-Dawley, rat, plasma, iv, 4 mg/kg, rat plasma, IV 4 mg/kg, AVERAGE, read-out: Tmax): 25.2 min
- AUC(0-inf) [4, 7]: 1020 ng·h/mL
- half-life [4, 7]: 43.8 min
- C0 ([4]; male, Sprague-Dawley, rat, plasma, iv, 4 mg/kg, rat plasma, IV 4 mg/kg, individual rats A, B, C, read-out: C0): 434 ng/mL
- Cmax ([4]; male, Sprague-Dawley, rat, plasma, iv, 4 mg/kg, rat plasma, IV 4 mg/kg, individual rats A, B, C, read-out: Cmax): 545 ng/mL
- Tmax ([4]; male, Sprague-Dawley, rat, plasma, iv, 4 mg/kg, rat plasma, IV 4 mg/kg, individual rats A, B, C, read-out: Tmax): 30 min
- Vd ([4]; male, Sprague-Dawley, rat, plasma, iv, 4 mg/kg, rat, IV 4 mg/kg, AVERAGE): 5.1 L/kg
- Vd ([4]; male, Sprague-Dawley, rat, plasma, iv, 4 mg/kg, rat, IV 4 mg/kg, individual rats A, B, C): 4.6 L/kg
- AUC(0-inf) ([4]; male, Sprague-Dawley, rat, plasma, po, 100 mg/kg, rat plasma, PO 100 mg/kg, AVERAGE): 4960 ng·h/mL
- Cmax ([4]; male, Sprague-Dawley, rat, plasma, po, 100 mg/kg, rat plasma, PO 100 mg/kg, AVERAGE, read-out: Cmax): 526 ng/mL
- Tmax ([4]; male, Sprague-Dawley, rat, plasma, po, 100 mg/kg, rat plasma, PO 100 mg/kg, AVERAGE, read-out: Tmax): 162 min
- AUC(0-inf) ([4]; male, Sprague-Dawley, rat, plasma, po, 100 mg/kg, rat plasma, PO 100 mg/kg, individual rats A, B, C): 4900 ng·h/mL
- Cmax ([4]; male, Sprague-Dawley, rat, plasma, po, 100 mg/kg, rat plasma, PO 100 mg/kg, individual rats A, B, C, read-out: Cmax): 500 ng/mL
- Tmax ([4]; male, Sprague-Dawley, rat, plasma, po, 100 mg/kg, rat plasma, PO 100 mg/kg, individual rats A, B, C, read-out: Tmax): 240 min
- bioavailability ([4]; male, Sprague-Dawley, rat, plasma, po, 100 mg/kg, rat, PO 100 mg/kg, AVERAGE): 21%
- bioavailability ([4]; male, Sprague-Dawley, rat, plasma, po, 100 mg/kg, rat, PO 100 mg/kg, individual rats A, B, C): 21%
- AUC(0-∞) [4, 8]: 759 ng·h/mL and 1028 ng·h/mL
- C0 [4, 8]: 446 ng/mL and 390 ng/mL
- Cmax [4, 8]: 548 ng/mL and 564 ng/mL
- T1/2 [4, 8]: 43.2 min and 59.4 min
- Tmax [4, 8]: 15 min
- AUC(0-∞) [4, 9]: 4026 ng·h/mL and 5936 ng·h/mL
- Cmax [4, 9]: 501 ng/mL and 577 ng/mL
- Tmax [4, 9]: 120 min
- CL [4, 10]: 88 mL/min/kg
- VDss [4, 10]: 5.4 L/kg and 5.3 L/kg
- % Bioavailability F ([4]; rat, PO 100 mg/kg, individual rats A, B, C, 100 mg/kg): 17% and 25%
- GI50 ([5]; 72-hour incubation, MTS, read-out: GI50 in QGY-7703 cells): 260 nM
- GI50 ([5]; Table 5, read-out: QGY-7703 GI50): 260 nM
- GI50 ([5]; Table 8, read-out: QGY-7703 GI50): 260 nM
